Experiment [1] concerns the target T1, High affinity choline transporter 1 (Homo sapiens, UniProt Q9GZV3).
T1 sequence (Q9GZV3 whole entry): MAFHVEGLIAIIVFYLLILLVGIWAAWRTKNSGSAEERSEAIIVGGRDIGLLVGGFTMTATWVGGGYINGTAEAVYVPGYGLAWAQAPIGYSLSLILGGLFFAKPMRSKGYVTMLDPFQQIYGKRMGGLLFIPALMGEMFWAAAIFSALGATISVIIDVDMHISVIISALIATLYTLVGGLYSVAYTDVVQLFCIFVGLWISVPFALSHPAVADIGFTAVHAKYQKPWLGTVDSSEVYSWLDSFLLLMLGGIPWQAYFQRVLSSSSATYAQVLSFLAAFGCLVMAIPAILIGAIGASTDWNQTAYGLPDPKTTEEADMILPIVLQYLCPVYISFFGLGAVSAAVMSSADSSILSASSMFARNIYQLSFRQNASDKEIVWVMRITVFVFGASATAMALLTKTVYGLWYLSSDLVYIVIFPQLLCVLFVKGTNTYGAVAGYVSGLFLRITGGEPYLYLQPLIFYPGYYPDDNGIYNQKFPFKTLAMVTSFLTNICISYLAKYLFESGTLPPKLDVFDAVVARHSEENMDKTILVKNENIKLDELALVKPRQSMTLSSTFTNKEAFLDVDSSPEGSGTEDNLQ
Nature of the experiment: CHT inhibitors, dose response, cell-based, 10-point CRC, membrane potential dye (AID 588401).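 Further: membrane potential dye fluorescence of choline-evoked depolarization via CHT.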 The format is functional.

In experiment [2] the target is T2, CAAX prenyl protease 2 (Saccharomyces cerevisiae S288c, UniProt Q03530).
T2 sequence (Q03530 whole entry): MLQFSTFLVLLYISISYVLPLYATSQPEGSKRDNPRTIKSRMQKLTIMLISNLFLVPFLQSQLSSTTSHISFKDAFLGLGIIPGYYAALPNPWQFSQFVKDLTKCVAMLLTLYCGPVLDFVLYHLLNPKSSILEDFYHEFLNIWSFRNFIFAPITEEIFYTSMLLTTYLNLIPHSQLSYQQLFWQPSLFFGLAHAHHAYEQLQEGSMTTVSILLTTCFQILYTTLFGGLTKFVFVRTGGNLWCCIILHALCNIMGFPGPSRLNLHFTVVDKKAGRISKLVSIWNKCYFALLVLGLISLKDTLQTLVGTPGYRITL
The format is biochemical.

The target of experiment [3] is T1, High affinity choline transporter 1. The experiment is described as follows: CHT inhibitors, dose response, cell-based, 5-point CRC, membrane potential dye (AID 504840). Type of experiment: functional.
The target in experiment [4] is T3, Bcl-2-related protein A1 (Mus musculus, UniProt Q07440).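 Further: confirmatory dose–response counterscreen on Bfl-1, used to check hits from a UBC13 polyubiquitin inhibitor campaign.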
T3 sequence (Q07440 whole entry): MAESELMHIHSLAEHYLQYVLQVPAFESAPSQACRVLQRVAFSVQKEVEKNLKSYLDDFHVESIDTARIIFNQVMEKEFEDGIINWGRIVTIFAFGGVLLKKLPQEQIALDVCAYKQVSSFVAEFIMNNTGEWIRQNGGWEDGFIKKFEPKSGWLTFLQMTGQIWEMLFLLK
The format is functional.

Experiment [5] addresses CAAX prenyl protease 1 (Saccharomyces cerevisiae S288c, UniProt P47154). Nature of the experiment: Ste24 protease inhibitors, dose response, biochemical, S. cerevisiae, plate reader, cherry-pick (AID 488815).
In experiment [6] the target is T4, Ubiquitin-conjugating enzyme E2 N (Homo sapiens, UniProt P61088).
T4 sequence (P61088 whole entry): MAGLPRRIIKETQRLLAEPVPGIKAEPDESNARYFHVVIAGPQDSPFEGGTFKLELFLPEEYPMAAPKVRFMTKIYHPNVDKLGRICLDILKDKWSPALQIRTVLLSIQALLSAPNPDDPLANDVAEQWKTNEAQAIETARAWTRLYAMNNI
Type of experiment: functional.

Experiment [7] has as its target T4, Ubiquitin-conjugating enzyme E2 N. The format is functional. The source holds these as a separate data set.

Calls of active or inactive are those of the source.

The source of these data is ChEMBL document CHEMBL1201862, “PubChem BioAssay data set” (2004).

Sequence of CAAX prenyl protease 1 (P47154 whole entry): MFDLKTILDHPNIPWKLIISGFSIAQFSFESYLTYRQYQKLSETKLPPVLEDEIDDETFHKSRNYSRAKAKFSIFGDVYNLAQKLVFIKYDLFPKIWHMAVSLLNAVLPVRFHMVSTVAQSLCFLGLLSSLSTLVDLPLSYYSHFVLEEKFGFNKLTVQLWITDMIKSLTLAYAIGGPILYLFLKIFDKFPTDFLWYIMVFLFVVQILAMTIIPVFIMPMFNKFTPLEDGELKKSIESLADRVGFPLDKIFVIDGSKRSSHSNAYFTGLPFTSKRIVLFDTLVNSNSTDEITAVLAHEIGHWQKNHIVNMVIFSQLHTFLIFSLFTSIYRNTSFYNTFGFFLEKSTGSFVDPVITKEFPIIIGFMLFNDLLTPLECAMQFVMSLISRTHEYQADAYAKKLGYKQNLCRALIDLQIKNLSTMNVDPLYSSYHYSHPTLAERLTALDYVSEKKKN

With `NCCCn1c(C(=O)c2cc(Cl)c(N)c(Cl)c2)c2ccc(C(F)(F)F)cc2[n+]1[O-]`, the concentration for half-maximal inhibition (IC50) (as a rule, the concentration at which inhibition is half-maximal) in experiment [1] was 1.08 µM (active); in experiment [3], 1.39 µM (active); in experiment [4], > 20 µM (inactive); in experiment [6] it was 4.21 µM (active); in experiment [7], 4.28 µM (active). The AC50 (usually the concentration giving half of the maximal activity seen) was 35.5 µM (active) in experiment [2] and > 100 µM (inactive) in experiment [5].
